Experimental data taken from US20060069132A1, “Azolecarboxamide herbicides” (priority 2004, published 2006).

Experiments:
barnyardgrass [1] = test: Test A pre-/postemergence herbicide test; type: in vivo, Echinochloa crus-galli
In short: (§1)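 Sandy loam soil given preemergence directed spray; plants at 2 to 10 cm, one- to two-leaf stage, sprayed to runoff postemergence, compounds in non-phytotoxic solvent with surfactant. Injury rated visually versus untreated controls after about ten greenhouse days, 0 (no effect) to 100 (complete control); dash means not tested.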

large crabgrass = test: Test A pre-/postemergence herbicide test; type: in vivo, Digitaria sanguinalis
In short: as §1

morningglory = test: Test A pre-/postemergence herbicide test; type: in vivo, Ipomoea spp.
In short: as §1

rice [2] = test: Test B pre-/postemergence herbicide test; type: in vivo, Oryza sativa; details: preemergence
In short: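 Visual rating, 0 (no effect) to 100 (complete control), versus untreated controls after 13–15 d in greenhouse. Pre- and postemergence applications (postemergence plants 2–18 cm, 1–4 leaves); flooded paddy arm at 2-leaf stage. Compounds in non-phytotoxic solvent plus surfactant.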

Surinam grass = test: Test C pre-/postemergence herbicide test; type: in vivo, Urochloa decumbens; details: for Surinam Grass plant response rating: 500 g ai/ha
In short: (§2)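 Preemergence: seeds planted and treated with compound in non-phytotoxic solvent with surfactant; postemergence: plants at 2 to 18 cm (1- to 4-leaf stage) sprayed likewise. Kept in greenhouse 12 to 14 days, then visually rated against controls, 0 (no effect) to 100 (complete control).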

[3] = test system: common (oilseed) sunflower; test: Test C pre-/postemergence herbicide test; type: in vivo, Helianthus annuus; details: for Plant response rating (0 = no effect, 100 = complete control), Sunflower: 62 g ai/ha; for Plant response rating (0 = no effect, 100 = complete control), Sunflower / Plant response rating, Sunflower: preemergence; for Sunflower plant response rating: Preemergence, 500 g ai/ha, scale 0 to 100, 0 no effect, 100 complete control
In short: as §2

rice [4] = test: Test C flooded paddy test; type: in vivo, Oryza sativa; details: for Plant response rating, Rice: 500 g ai/ha, visual rating after 12 to 14 days
In short: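 Injury scored visually against controls on a 0 (no effect) to 100 (complete control) scale, 12 to 14 days after treatment in greenhouse. Flooded paddy plants treated at 2-leaf stage; postemergence plants at 1- to 4-leaf stage, 2 to 18 cm tall.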

barnyardgrass [5] = test: Test C flooded paddy test; type: in vivo, Echinochloa crus-galli; details: for Plant response rating, Barnyardgrass: 500 g ai/ha, visual rating after 12 to 14 days
In short: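 Postemergence sprays were applied to plants 2 to 18 cm tall (1- to 4-leaf stage); in the flooded paddy test, barnyardgrass was grown to the 2-leaf stage. After 12 to 14 days in a greenhouse, injury was visually rated against untreated controls on a 0–100 scale (100 = complete control).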

[6] = Postemergence, 500 g ai/ha, 0 to 100 scale, 0 no effect, 100 complete control
[7] = Postemergence, 2000 g ai/ha, 0 to 100 scale, 0 no effect, 100 complete control
[8] = Preemergence, 500 g ai/ha, visual rating, 0 to 100 scale (0 no effect, 100 complete control)
[9] = Preemergence, 2000 g ai/ha, 0 to 100 scale, 0 no effect, 100 complete control
[10] = 125 g ai/ha, 0 to 100 scale, 0 is no effect, 100 is complete control
[11] = 125 g ai/ha, scale 0 (no effect) to 100 (complete control), visual, 12 to 14 days, preemergence
[12] = Preemergence, scale 0 to 100, 0 no effect, 100 complete control
[13] = 125 g ai/ha, scale 0 (no effect) to 100 (complete control), visual, 12 to 14 days
[14] = 62 g ai/ha, scale 0 to 100 (0 no effect, 100 complete control)
[15] = 125 g ai/ha, scale of 0 to 100, 0 is no effect, 100 is complete control
[16] = 250 g ai/ha, scale of 0 to 100, 0 is no effect, 100 is complete control
[17] = scale 0 to 100 (0 no effect, 100 complete control)
[18] = 500 g ai/ha, visual rating 0-100, 0 no effect, 100 complete control
[19] = Preemergence, 2000 g ai/ha, visual rating, 0 to 100 scale (0 no effect, 100 complete control)
[20] = Postemergence, 250 g ai/ha, scale 0 to 100, 0 no effect, 100 complete control
[21] = postemergence, 125 g ai/ha, scale 0 to 100
[22] = postemergence, 62 g ai/ha, scale 0 to 100
[23] = 125 g ai/ha, scale 0 to 100 (0 no effect, 100 complete control)

| SMILES | Plant response rating, Barnyardgrass (barnyardgrass [1]; [7]) | Barnyardgrass plant response rating (barnyardgrass [1]; [8]) | Plant response rating, Crabgrass, Large (large crabgrass; [7]) | Crabgrass, Large plant response rating (large crabgrass; [8]) | Plant response rating, Morningglory (morningglory; [7]) | Morningglory plant response rating (morningglory; [8]) | Plant response rating, Rice (rice [2]; [10]) | Plant response rating (0 = no effect, 100 = complete control), Surinam Grass (Surinam grass; 62 g ai/ha, preemergence) | Plant response rating, Surinam Grass (Surinam grass; [11]) | Surinam Grass plant response rating (Surinam grass; [12]) | Plant response rating (0 = no effect, 100 = complete control), Sunflower [3] | Plant response rating, Sunflower [3, 13] | Sunflower plant response rating [3] | Rice plant response rating (rice [4]; [14]) | Rice plant response rating (rice [4]; [16]) | Plant response rating, Rice (rice [4]; [17]) | Barnyardgrass plant response rating (barnyardgrass [5]; [14]) | Barnyardgrass plant response rating (barnyardgrass [5]; [15]) | Barnyardgrass plant response rating (barnyardgrass [5]; [16]) | Plant response rating, Barnyardgrass (barnyardgrass [5]; [17]) | further results |
| --- | --- | --- | --- | --- | --- | --- | --- | --- | --- | --- | --- | --- | --- | --- | --- | --- | --- | --- | --- | --- | --- |
| CCN1CCc2c(NC(=O)c3cc(C(C)(C)C)nn3CC)cccc2C1=O [Compound 63] | 90 | 70 | 80 | 90 | 15 | 10 | 50 | 0 | 5 | 60 | 0 | 0 | 30 | 0 | 15 | 50 | 0 | 0 | 20 | 50 | Plant response rating, Barnyardgrass (barnyardgrass [1]; [6]): 60; Barnyardgrass plant response rating (barnyardgrass [1]; [9]): 100; Plant response rating, Crabgrass, Large (large crabgrass; [6]): 40; Crabgrass, Large plant response rating (large crabgrass; [9]): 100; Plant response rating, Morningglory (morningglory; [6]): 15; Morningglory plant response rating (morningglory; [9]): 70; Plant response rating, Surinam Grass (Surinam grass; 250 g ai/ha, scale 0 to 100 (0 no effect, 100 complete control), visual, 12 to 14 days, preemergence): 45; Plant response rating, Sunflower ([3]; 250 g ai/ha, scale 0 to 100 (0 no effect, 100 complete control), visual, 12 to 14 days): 0; Rice plant response rating (rice [4]; [15]): 0 |
| CCOC(=O)c1cc(NC(=O)c2cc(C(C)(C)C)nn2CC)ccc1OCC [Compound 95] | 55 | 30 | 60 | 50 | 15 | 30 | 30 | 0 | 10 |  | 0 | 0 |  | 10 | 55 | 65 | 20 | 45 | 55 | 60 | Barnyardgrass plant response rating (barnyardgrass [1]; [6]): 30; Barnyardgrass plant response rating (barnyardgrass [1]; [9]): 50; Crabgrass, Large plant response rating (large crabgrass; [6]): 25; Crabgrass, Large plant response rating (large crabgrass; [9]): 90; Morningglory plant response rating (morningglory; [6]): 10; Morningglory plant response rating (morningglory; [9]): 55; Plant response rating, Rice (rice [2]; [18]): 50; Plant response rating, Surinam Grass (Surinam grass; 31 g ai/ha, preemergence, scale 0 to 100): 0; Plant response rating, Sunflower ([3]; 31 g ai/ha, scale 0 to 100): 0; Rice plant response rating (rice [4]; [15]): 10 |
| CCNC(=O)c1cccc(NC(=O)c2cc(C(C)(C)C)nn2CC)n1 [Compound 144] | 100 | 100 | 90 | 90 | 35 | 20 | 20 | 20 | 40 | 70 | 0 | 0 | 40 | 0 | 30 | 30 | 20 | 20 | 50 | 60 | Barnyardgrass plant response rating (barnyardgrass [1]; [6]): 85; Barnyardgrass plant response rating (barnyardgrass [1]; [19]): 100; Crabgrass, Large plant response rating (large crabgrass; [6]): 55; Crabgrass, Large plant response rating (large crabgrass; [19]): 90; Morningglory plant response rating (morningglory; [6]): 25; Morningglory plant response rating (morningglory; [19]): 75; Plant response rating, Rice (rice [2]; [18]): 30; Surinam Grass plant response rating (Surinam grass; Postemergence, scale 0 to 100): 40; Plant response rating, Surinam Grass (Surinam grass; [20]): 40; Plant response rating, Surinam Grass (Surinam grass; [21]): 0; Plant response rating, Surinam Grass (Surinam grass; [22]): 0; Rice plant response rating (rice [4]; [23]): 20 |
| C#CCNC(=O)c1cccc(NC(=O)c2cc(C(C)(C)C)nn2CC)n1 [Compound 147] | 95 | 40 | 90 | 85 | 30 | 20 | 0 | 0 | 10 | 60 | 0 | 0 | 0 | 0 |  |  | 0 | 0 |  |  | Barnyardgrass plant response rating (barnyardgrass [1]; [6]): 55; Barnyardgrass plant response rating (barnyardgrass [1]; [19]): 95; Crabgrass, Large plant response rating (large crabgrass; [6]): 40; Crabgrass, Large plant response rating (large crabgrass; [19]): 90; Morningglory plant response rating (morningglory; [6]): 20; Morningglory plant response rating (morningglory; [19]): 45; Plant response rating, Rice (rice [2]; [18]): 10; Surinam Grass plant response rating (Surinam grass; Postemergence, scale 0 to 100): 60; Plant response rating, Surinam Grass (Surinam grass; [20]): 30; Plant response rating, Surinam Grass (Surinam grass; [21]): 0; Plant response rating, Surinam Grass (Surinam grass; [22]): 0; Rice plant response rating (rice [4]; 16 g ai/ha, scale 0 to 100): 0; Rice plant response rating (rice [4]; 31 g ai/ha, scale 0 to 100): 0; Rice plant response rating (rice [4]; [23]): 0; Barnyardgrass plant response rating (barnyardgrass [5]; 16 g ai/ha, scale 0 to 100): 0; Barnyardgrass plant response rating (barnyardgrass [5]; 31 g ai/ha, scale 0 to 100): 0 |
